Consider four compounds from patent publication US20090005435A1, “Novel Compounds, Pharmaceutical Compositions Containing Same, and Methods of Use for Same” (priority 2004, published 2009).

Each structure is given as a SMILES string. In brackets after ≈: the same amount, converted by molar mass. Several values for one entry are separate records, joined by “and”; a condition that tells them apart may be missing. Identical values can stand only once.

The target of one assay is viral HIV protease (Human immunodeficiency virus type 1 group M subtype B, UniProt P04585). To be noted: cited from earlier work.
Assay [1] deals with Mycobacterium tuberculosis. The following applies: in vitro; cited from earlier work.
The next assay has as its target T1, purified human FAS (Homo sapiens, UniProt P49327).
T1 construct: Human FAS was purified from cultured ZR-75-1 human breast cancer cells; endogenous in cells; host or cells: ZR-75-1 human breast cancer cells (ATCC); enzyme purified by PEG precipitation and Mono Q chromatography
Briefly: FAS enzymatic activity (malonyl-CoA dependent NADPH oxidation). It counts as biochemical. The following applies: (SB). How it is done: Purification of FAS from ZR-75-1 Human Breast Cancer Cells.
Human FAS was purified from cultured ZR-75-1 human breast cancer cells obtained from the American Type Culture Collection. The procedure, adapted from Linn et al., 1981, and Kuhajda et al., 1994, utilizes hypotonic lysis, successive polyethyleneglycol (PEG) precipitations, and anion exchange chromatography. ZR-75-1 cells are cultured at 37° C. with 5% CO2 in RPMI culture medium with 10% fetal bovine serum, penicillin and streptomycin.
Ten T150 flasks of confluent cells are lysed with 1.5 ml lysis buffer (20 mM Tris-HCl, pH 7.5, 1 mM EDTA, 0.1 mM phenylmethanesulfonyl fluoride (PMSF), 0.1% Igepal CA-630) and dounce homogenized on ice for 20 strokes. The lysate is centrifuged in JA-20 rotor (Beckman) at 20,000 rpm for 30 minutes at 4° C. and the supernatant is brought to 42 ml with lysis buffer. A solution of 50% PEG 8000 in lysis buffer is added slowly to the supernatant to a final concentration of 7.5%. After rocking for 60 minutes at 4° C., the solution is centrifuged in JA-20 rotor (Beckman) at 15,000 rpm for 30 minutes at 4° C. Solid PEG 8000 is then added to the supernatant to a final concentration of 15%. After the rocking and centrifugation is repeated as above, the pellet is resuspended overnight at 4° C. in 10 ml of Buffer A (20 mM K2HPO4, pH 7.4). After […] filtration, the protein solution is applied to a Mono Q 5/5 anion exchange column (Pharmacia). The column is washed for 15 minutes with buffer A at 1 ml/minute, and bound material is eluted with a linear 60-ml gradient over 60 minutes to 1 M KCl. FAS (MW˜270 kD) typically elutes at 0.25 M KCl in three 0.5 ml fractions identified using 4-15% SDS-PAGE with Coomassie G250 stain (Bio-Rad). FAS protein concentration is determined using the Coomassie Plus Protein Assay Reagent (Pierce) according to manufacturer's specifications using BSA as a standard. This procedure results in substantially pure preparations of FAS (>95%) as judged by Coomassie-stained gels.
Measurement of FAS Enzymatic Activity and Determination of the IC50 of the Compounds
FAS activity is measured by monitoring the malonyl-CoA dependent oxidation of NADPH spectrophotometrically at OD340 in 96-well plates (Dils et al and Arslanian et al, 1975). Each well contains 2 μg purified FAS, 100 mM K2HPO4, pH 6.5, 1 mM dithiothreitol (Sigma), and 187.5 μM β-NADPH (Sigma). Stock solutions of inhibitors are prepared in DMSO at 2, 1, and 0.5 mg/ml resulting in final concentrations of 20, 10, and 5 μg/ml when 1 μl of stock is added per well. For each experiment, cerulenin (Sigma) is run as a positive control along with DMSO controls, inhibitors, and blanks (no FAS enzyme) all in duplicate.
The assay is performed on a Molecular Devices SpectraMax Plus Spectrophotometer. The plate containing FAS, buffers, inhibitors, and controls are placed in the spectrophotometer heated to 37° C. Using the kinetic protocol, the wells are blanked on duplicate wells containing 100 μl of 100 mM K2HPO4, pH 6.5 and the plate is read at OD340 at 10 sec intervals for 5 minutes to measure any malonyl-CoA independent oxidation of NADPH. The plate is removed from the spectrophotometer and malonyl-CoA (67.4 μM, final concentration per well) and […] (61.8 μM, final concentration per well) are added to each well except to the blanks. The plate is read again as above with the kinetic protocol to measure the malonyl-CoA dependent NADPH oxidation. The difference between the Δ OD340 for the malonyl-CoA dependent and non-malonyl-CoA dependent NADPH oxidation is the specific FAS activity. Because of the purity of the FAS preparation, non-malonyl-CoA dependent NADPH oxidation is negligible.
The IC50 for the compounds against FAS is determined by plotting the Δ OD340 for each inhibitor concentration tested, performing linear regression and computing the best-fit line, r^2 values, and 95% confidence intervals. The concentration of compound yielding 50% inhibition of FAS is the IC50. […]

Assay [2] has as its system MCF-7 human breast cancer cells. Put plainly: XTT cytotoxicity assay (M). It counts as cell-based. The following applies: MCF7. How it is done: (§1) The XTT assay is a non-radioactive alternative for the [^51Cr] release cytotoxicity assay. XTT is a tetrazolium salt that is reduced to a formazan dye only by metabolically active, viable cells. The reduction of XTT is measured spectrophotometrically as OD490-OD650.
To measure the cytotoxicity of specific compounds against cancer cells, 9×10^3 MCF-7 human breast cancer cells, obtained from the American Type Culture Collection are plated per well in 96 well plates in DMEM medium with 10% fetal bovine serum, insulin, penicillin, and streptomycin. Following overnight culture at 37° C. and 5% CO2, the compounds to be tested, dissolved in DMSO, are added to the wells in 1 μl volume at the following concentrations: 80, 40, 20, 10, 5, 2.5, 1.25, and 0.625 μg/ml in triplicate. Additional concentrations are tested if required. 1 μl of DMSO is added to triplicate wells are the vehicle control. C75 is run at 40, 20, […], and 5 μg/ml in triplicate as positive controls.
(§2) After 72 hours of incubation, cells are incubated for 4 hours with the XTT reagent as per manufacturer's instructions (Cell Proliferation Kit II (XTT) Roche). Plates are read at OD490 and OD650 on a Molecular Devices SpectraMax Plus Spectrophotometer. Three wells containing the XTT reagent without cells serve as the plate blank. XTT data are reported as OD490-OD650. Averages and standard error of the mean are computed using SOFTmax Pro software ([…]).
(§3) The IC50 for the compounds is defined as the concentration of drug leading to a 50% reduction in OD490-OD650 compared to controls. The OD490-OD650 are computed by the SOFTmax PRO software (Molecular Devices) for each compound concentration. IC50 is calculated by linear regression, plotting the FAS activity as percent of control versus drug concentrations. Linear regression, best-fit line, r^2, and 95% confidence intervals are determined using Prism Version 3.0 (Graph Pad Software).
On the technique in general: Tetrazolium dyes change colour on reduction, which living cells bring about.

Another assay concerns (O). Put plainly: XTT cytotoxicity assay (O). The format is cell-based. To be noted: read-out: XTT (IC50) (O). How it is done: as §1, §2, §3
The subject of the next assay is fatty acid oxidation. Put plainly: β-Oxidation assay, isolation of acid soluble products. It counts as cell-based. On the set-up: Beta Oxidation: unit not given here. The following applies: for FAO MAx: maximal fatty acid oxidation, at the concentration given under E32. How it is done:
β-Oxidation Assay—Isolation of Acid Soluble Products A 24 well plate with 1 ml per well was prepared with 2.5×10^5 cells/well. The cells were incubated O/N. The next day, a solubilized palmitate solution was prepared. 50 μls of (1-^14C) Palmitic acid was added to a 2 ml centrifuge tube and dried under nitrogen gas. 2 mls of α-CD (α-Cyclodextran)-10 mg/ml in 10 mM Tris were added. This solution was incubated in a 37° C. water bath for 30 minutes. A hot mix was prepared by adding 25 μls of this solution to 2.5 μls of 200 μM Carnitine and 222.5 μls of serum free medium that is used for cells. The cells were then treated with the test compound in triplicate, and incubated at 37° C. for 60 minutes. The medium was removed and 250 μls of the hot mix were added. The test compound was added again, and further incubated at 37° C. for 60 minutes. The reaction was stopped with 50 μls of 2.6 N HClO4. The contents of the plate were transferred to a 1.5 ml centrifuge tube, and 50 μls of 4N KOH were then added, and the tube incubated in a 60° C. water bath for 30 min. Sodium acetate (1M, 75 μls) and sulfuric acid (3N, 50 μls) were added to the solution and vortexed. The tube was spun for 7 minutes at 1000 rpm at room temperature. A portion (225 μls) was removed, and the following were added (vortex after each addition, twice at the end): 938 μls of 1:1 Chloroform:Methanol; 468 μls of Chloroform; 281 μls distilled Water. The tubes were spun at 1000 rpm for 5 minutes. The upper phase was removed into a large glass scintillation vial and 5 mls of Budget solvent (scintillation liquid) was added. The tubes were well vortexed. Finally, C14 was counted for one minute.

Assay [3] addresses rat liver acyl-CoA synthetase. The following applies: read-out: 50% inhibition of rat liver acyl-CoA synthetase; cited from earlier work.
In another assay the test system is Raji cells. The following applies: cited from earlier work.

T1 sequence (P49327 whole entry): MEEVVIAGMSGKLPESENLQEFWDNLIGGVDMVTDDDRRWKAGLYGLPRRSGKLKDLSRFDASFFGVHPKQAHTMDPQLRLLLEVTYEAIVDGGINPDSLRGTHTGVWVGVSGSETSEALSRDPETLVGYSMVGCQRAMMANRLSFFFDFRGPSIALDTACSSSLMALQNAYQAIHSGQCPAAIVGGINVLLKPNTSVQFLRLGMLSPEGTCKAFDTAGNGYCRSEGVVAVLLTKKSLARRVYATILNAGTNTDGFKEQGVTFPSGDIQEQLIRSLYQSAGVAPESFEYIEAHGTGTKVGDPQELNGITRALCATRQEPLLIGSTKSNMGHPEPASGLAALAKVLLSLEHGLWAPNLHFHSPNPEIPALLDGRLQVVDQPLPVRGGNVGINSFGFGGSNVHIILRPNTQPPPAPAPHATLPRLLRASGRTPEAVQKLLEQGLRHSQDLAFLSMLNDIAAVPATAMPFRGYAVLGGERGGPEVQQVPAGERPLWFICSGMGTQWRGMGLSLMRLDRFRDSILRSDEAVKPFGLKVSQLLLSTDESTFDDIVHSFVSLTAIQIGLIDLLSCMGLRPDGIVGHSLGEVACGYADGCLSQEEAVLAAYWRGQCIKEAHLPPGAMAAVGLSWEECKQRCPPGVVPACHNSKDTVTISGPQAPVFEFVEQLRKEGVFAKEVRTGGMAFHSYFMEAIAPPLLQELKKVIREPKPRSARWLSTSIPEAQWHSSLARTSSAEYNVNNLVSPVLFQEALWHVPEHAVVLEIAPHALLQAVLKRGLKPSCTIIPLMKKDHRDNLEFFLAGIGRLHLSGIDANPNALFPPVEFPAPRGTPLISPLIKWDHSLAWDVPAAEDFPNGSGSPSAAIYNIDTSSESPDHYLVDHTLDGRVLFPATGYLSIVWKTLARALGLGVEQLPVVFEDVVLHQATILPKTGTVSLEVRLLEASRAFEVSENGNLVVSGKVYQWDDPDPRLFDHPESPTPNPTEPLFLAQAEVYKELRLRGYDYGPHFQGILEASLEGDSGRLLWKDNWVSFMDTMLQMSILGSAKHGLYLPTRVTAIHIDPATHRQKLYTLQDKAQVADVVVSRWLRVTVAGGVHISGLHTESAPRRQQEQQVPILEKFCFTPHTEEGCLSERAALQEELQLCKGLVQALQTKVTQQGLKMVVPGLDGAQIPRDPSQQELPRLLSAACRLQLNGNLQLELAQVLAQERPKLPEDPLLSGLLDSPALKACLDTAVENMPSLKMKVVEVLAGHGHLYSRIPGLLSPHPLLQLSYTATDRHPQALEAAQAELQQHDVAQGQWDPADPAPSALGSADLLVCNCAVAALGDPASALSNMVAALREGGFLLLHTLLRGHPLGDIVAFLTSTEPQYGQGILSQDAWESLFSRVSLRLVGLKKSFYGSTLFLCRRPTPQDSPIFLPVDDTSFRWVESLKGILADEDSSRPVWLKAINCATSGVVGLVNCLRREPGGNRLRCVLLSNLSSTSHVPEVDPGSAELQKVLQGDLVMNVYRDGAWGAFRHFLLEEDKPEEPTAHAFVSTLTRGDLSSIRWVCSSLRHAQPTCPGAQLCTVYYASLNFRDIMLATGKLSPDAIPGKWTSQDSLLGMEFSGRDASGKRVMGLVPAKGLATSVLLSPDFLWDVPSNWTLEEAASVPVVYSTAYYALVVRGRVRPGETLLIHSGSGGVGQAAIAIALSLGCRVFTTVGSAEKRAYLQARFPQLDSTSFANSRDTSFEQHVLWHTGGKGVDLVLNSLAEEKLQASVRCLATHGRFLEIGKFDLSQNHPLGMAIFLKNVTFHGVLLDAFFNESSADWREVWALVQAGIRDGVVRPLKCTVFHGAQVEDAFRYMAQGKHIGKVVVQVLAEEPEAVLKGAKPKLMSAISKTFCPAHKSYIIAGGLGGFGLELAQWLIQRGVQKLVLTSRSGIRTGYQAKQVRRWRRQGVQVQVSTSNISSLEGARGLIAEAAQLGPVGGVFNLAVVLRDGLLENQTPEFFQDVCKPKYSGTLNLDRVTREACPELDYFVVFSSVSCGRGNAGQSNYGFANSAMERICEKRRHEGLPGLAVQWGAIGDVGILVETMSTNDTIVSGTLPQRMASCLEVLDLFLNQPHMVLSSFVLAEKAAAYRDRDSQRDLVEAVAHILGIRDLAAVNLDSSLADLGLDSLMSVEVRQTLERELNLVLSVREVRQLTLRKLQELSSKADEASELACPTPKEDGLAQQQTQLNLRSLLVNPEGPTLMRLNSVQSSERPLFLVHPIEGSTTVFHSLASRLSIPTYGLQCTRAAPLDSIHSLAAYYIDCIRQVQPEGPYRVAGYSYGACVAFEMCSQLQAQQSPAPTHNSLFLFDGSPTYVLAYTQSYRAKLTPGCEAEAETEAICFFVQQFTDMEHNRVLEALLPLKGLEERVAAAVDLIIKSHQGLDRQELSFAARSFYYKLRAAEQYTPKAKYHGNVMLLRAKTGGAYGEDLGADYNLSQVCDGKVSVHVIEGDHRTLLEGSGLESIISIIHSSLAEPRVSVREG

Regarding `C/C=C/C/C=C/CCC(=O)[C@H]1O[C@H]1C(N)=O` [cerulenin, (2S,3R)-2,3-epoxy-4-oxo-7,10 dodecadienoyl amide], the “inhibition of viral HIV protease at” value at viral HIV protease was 5 mg/mL. Further, the “activity against Mycobacterium tuberculosis” value in assay [1] is on record as “no activity was found”.

In the case of `CCCCCCC1(C)SC(=O)C(C)(C)C1=O` (stereo not shown) [Compound 9, 3,3,5-Trimethyl-5-hexyl-thiophene-2,4-dione], the “FAS (IC50) (SB)” value on purified human FAS is “Neg (SB)”. Moreover, the IC50 in assay [2] was determined as 5.3 µg/mL (≈ 21.9 µM); in the assay with (O), 14 µg/mL (≈ 57.8 µM). Moreover, the “FAO MAx, concentration at maximum” value in the assay on fatty acid oxidation turned out to be 6.25 µg/mL. In addition, the “FAO SC 150” value with fatty acid oxidation is listed as “Neg”. Also, the “Beta Oxidation” value in the assay with fatty acid oxidation (0.097 ug/ml) was found to be 96; in the assay with fatty acid oxidation (0.39 ug/ml), 99; in the assay on fatty acid oxidation (1.56 ug/ml), 97; with fatty acid oxidation (6.25 ug/ml) it was 115; in the assay on fatty acid oxidation (25 ug/ml), 58; in the assay with fatty acid oxidation (100 ug/ml), 27. Besides, the “FAO MAx” value in the assay on fatty acid oxidation came out at 115%.

In the case of `CCCC=CCC=CC=CC=NN=NO` [Triacsin C, 1-hydroxy-3-(E,E,E-2′,4′,7′-undecatrienylidine) triazene], the IC50 in assay [3] was 8.7 µM. For the same compound, in the assay on Raji cells, the “growth inhibition in Raji cells at” value was 1.0 µM.

Regarding `CCCCCCCCC1(C)SC(=O)C(C)(C)C1=O` (stereo not shown) [Compound 6, 3,3,5-Trimethyl-5-octyl-thiophene-2,4-dione], the “FAS (IC50) (SB)” value at purified human FAS was “Neg (SB)”. For the same compound, the IC50 in assay [2] was 23 µg/mL (≈ 85 µM); in the assay with (O), over 80 µg/mL. For the same compound, the “FAO MAx, concentration at maximum” value with fatty acid oxidation worked out at 6.25 µg/mL. Moreover, in the assay on fatty acid oxidation, the “FAO SC 150” value is listed as “Neg”. Further, the “Beta Oxidation” value in the assay with fatty acid oxidation (0.097 ug/ml) was 100 and 86; in the assay with fatty acid oxidation (0.39 ug/ml) it was 110 and 93; in the assay with fatty acid oxidation (1.56 ug/ml) it was 110 and 102; in the assay with fatty acid oxidation (6.25 ug/ml), 121 and 141 and 130; in the assay with fatty acid oxidation (25 ug/ml), 57 and 52 and 53; in the assay with fatty acid oxidation (100 ug/ml), 19 and 29. Moreover, the “FAO MAx” value with fatty acid oxidation is 141% at.
